Source: ChEMBL document CHEMBL6121007, “Design, synthesis and evaluation of pyrimidine derivatives as sedative-hypnotic agents” (Eur J Med Chem, 2025)
The source made the active and inactive calls. The rule behind the calls is not given here.

Columns and labels:
[1] = Upregulation of kaposi sarcoma-associated herpesvirus infection related genes in hypothalamus of mouse at 2.5 mg/kg, ip measured after 30 mins by KEGG enrichment analysis relative to control; format: functional; details: 0.5 h
[2] = tested on: Mus musculus; test: Upregulation of oxytocin signaling pathway related genes in hypothalamus of mouse at 2.5 mg/kg, ip measured after 30 mins by KEGG enrichment analysis relative to control; format: functional; details: 0.5 h
[3] = tested on: Mus musculus; test: Upregulation of calcium signaling pathway related genes in hypothalamus of mouse at 2.5 mg/kg, ip measured after 30 mins by KEGG enrichment analysis relative to control; format: functional; details: 0.5 h
[4] = Upregulation of human papillomavirus infection related genes in hypothalamus of mouse at 2.5 mg/kg, ip measured after 30 mins by KEGG enrichment analysis relative to control; format: functional; details: 0.5 h
[5] = tested on: Mus musculus; test: Upregulation of lipid and atherosclerosis related genes in hypothalamus of mouse at 2.5 mg/kg, ip measured after 30 mins by KEGG enrichment analysis relative to control; format: functional; details: 0.5 h
[6] = Ratio of drug concentration in male mouse brain to plasma at 10 mg/kg, ip measured after 2 hrs by LC-MS/MS analysis; format: ADME, organism-based; details: brain and plasma, read-out: BPR
[7] = Clearance in male Sprague-Dawley rat at 2.5 mg/kg, ip measured after 5 to 1440 mins by LC-MS/MS analysis; format: ADME, organism-based; details: in vivo, time 5-1440 min
[8] = Tmax in male Sprague-Dawley rat at 2.5 mg/kg, ip measured after 5 to 1440 mins by LC-MS/MS analysis; format: ADME, organism-based; details: in vivo, time 5-1440 min
[9] = tested on: Mus musculus; test: Upregulation of serine metabolism related genes in hypothalamus of mouse at 2.5 mg/kg, ip measured after 30 mins by KEGG enrichment analysis relative to control; format: functional; details: 0.5 h
[10] = AUC (0 to infinity) in male Sprague-Dawley rat at 0.5 mg/kg, iv measured after 2 to 720 mins by LC-MS/MS analysis; format: ADME, organism-based; details: in vivo, time 2-720 min
[11] = tested on: Mus musculus; test: Upregulation of cell cycle related genes in hypothalamus of mouse at 2.5 mg/kg, ip measured after 30 mins by KEGG enrichment analysis relative to control; format: functional; details: 0.5 h
[12] = Upregulation of focal adhesion related genes in hypothalamus of mouse at 2.5 mg/kg, ip measured after 30 mins by KEGG enrichment analysis relative to control; format: functional; details: 0.5 h
[13] = tested on: Mus musculus; test: Sedative-hypnotic activity in pentobarbital-induced mouse assessed as asleep rate at 0.5 to 2.5 mg/kg, ip preadministered with compound for 20 mins followed by pentobarbital administration and measured within 15 mins (reference value: 12.5 %); format: functional; details: dose 0.5-2.5 mg/kg, time <= 35 min
[14] = Ratio of drug concentration in male mouse brain to plasma at 10 mg/kg, ip measured after 1 hrs by LC-MS/MS analysis; format: ADME, organism-based; details: brain and plasma, read-out: BPR
[15] = tested on: Mus musculus; test: Sedative-hypnotic activity in mouse assessed as decrease in grip strength score at 0.1 to 2.5 mg/kg, ip administrated as single dose and measured after 30 mins by grip strength test; format: functional, organism-based; details: dose 0.1-2.5 mg/kg
[16] = tested on: Mus musculus; test: Upregulation of amphetamine addiction related genes in hypothalamus of mouse at 2.5 mg/kg, ip measured after 30 mins by KEGG enrichment analysis relative to control; format: functional; details: 0.5 h
[17] = tested on: Mus musculus; test: In vivo activation of cAMP/PKA/CREB signaling pathway in mouse assessed as increase in CREB phosphorylation in hypothalamus at 2.5 mg/kg, ip measured after 30 mins by Western blot analysis; format: functional, organism-based
[18] = AUC (0 to t) in male Sprague-Dawley rat at 0.5 mg/kg, iv measured after 2 to 720 mins by LC-MS/MS analysis; format: ADME, organism-based; details: in vivo, time 2-720 min
[19] = Cmax in male Sprague-Dawley rat at 2.5 mg/kg, ip measured after 5 to 1440 mins by LC-MS/MS analysis; format: ADME, organism-based; details: in vivo, time 5-1440 min
[20] = Upregulation of MAPK signaling pathway related genes in hypothalamus of mouse at 2.5 mg/kg, ip measured after 30 mins by KEGG enrichment analysis relative to control; format: functional; details: 0.5 h
[21] = tested on: Mus musculus; test: Sedative-hypnotic activity in pentobarbital-induced mouse assessed as decrease in sleep latency at 0.2 to 5 mg/kg, ip; format: functional, organism-based; details: dose 0.2-5 mg/kg
[22] = Clearance in male Sprague-Dawley rat at 0.5 mg/kg, iv measured after 2 to 720 mins by LC-MS/MS analysis; format: ADME, organism-based; details: in vivo, time 2-720 min
[23] = Upregulation of cGMP-PKG signaling pathway related genes in hypothalamus of mouse at 2.5 mg/kg, ip measured after 30 mins by KEGG enrichment analysis relative to control; format: functional; details: 0.5 h
[24] = MRT (0 to infinity) in male Sprague-Dawley rat at 0.5 mg/kg, iv measured after 2 to 720 mins by LC-MS/MS analysis; format: ADME, organism-based; details: in vivo, time 2-720 min
[25] = Drug concentration in male mouse plasma at 10 mg/kg, ip measured after 2 hrs by LC-MS/MS analysis; format: ADME, organism-based
[26] = Upregulation of proteoglycans in cancer related genes in hypothalamus of mouse at 2.5 mg/kg, ip measured after 30 mins by KEGG enrichment analysis relative to control; format: functional; details: 0.5 h
[27] = tested on: Mus musculus; test: Upregulation of arachidonic acid metabolism related genes in hypothalamus of mouse at 2.5 mg/kg, ip measured after 30 mins by KEGG enrichment analysis relative to control; format: functional; details: 0.5 h
[28] = Tmax in male Sprague-Dawley rat at 0.5 mg/kg, iv measured after 2 to 720 mins by LC-MS/MS analysis; format: ADME, organism-based; details: in vivo, time 2-720 min
[29] = Half life in male Sprague-Dawley rat at 0.5 mg/kg, iv measured after 2 to 720 mins by LC-MS/MS analysis; format: ADME, organism-based; details: in vivo, time 2-720 min
[30] = Apparent volume of distribution in male Sprague-Dawley rat at 0.5 mg/kg, iv measured after 2 to 720 mins by LC-MS/MS analysis; format: ADME, organism-based; details: in vivo, time 2-720 min, read-out: Vd(app)
[31] = MRT (0 to infinity) in male Sprague-Dawley rat at 2.5 mg/kg, ip measured after 5 to 1440 mins by LC-MS/MS analysis; format: ADME, organism-based; details: in vivo, time 5-1440 min
[32] = tested on: Mus musculus; test: Upregulation of threonine metabolism related genes in hypothalamus of mouse at 2.5 mg/kg, ip measured after 30 mins by KEGG enrichment analysis relative to control; format: functional; details: 0.5 h
[33] = Upregulation of mTOR signaling pathway related genes in hypothalamus of mouse at 2.5 mg/kg, ip measured after 30 mins by KEGG enrichment analysis relative to control; format: functional; details: 0.5 h
[34] = tested on: Mus musculus; test: Upregulation of linoleic acid metabolism related genes in hypothalamus of mouse at 2.5 mg/kg, ip measured after 30 mins by KEGG enrichment analysis relative to control; format: functional; details: 0.5 h
[35] = tested on: Mus musculus; test: Upregulation of apoptosis related genes in hypothalamus of mouse at 2.5 mg/kg, ip measured after 30 mins by KEGG enrichment analysis relative to control; format: functional; details: 0.5 h
[36] = tested on: Mus musculus; test: Sedative-hypnotic activity in pentobarbital-induced mouse assessed as asleep rate at 0.5 to 0.1 mg/kg, ip preadministered with compound for 20 mins followed by pentobarbital administration and measured within 15 mins (reference value: 12.5 %); format: functional; details: dose 0.5-0.1 mg/kg, time <= 35 min, at 0.1 to 0.5 mg/kg

SMILES: CCn1c2ccccc2c2cc(Nc3ccnc(Nc4ccc(C)c(OC)c4)n3)ccc21
- Activity [1]: 4.62%
- Activity [2]: 5.2%
- Activity [3]: 4.62%
- Activity [4]: 6.36%
- Activity [5]: 7.51%
- Kp at 2 h [6]: 0.38
- CL/F [7]: 12.7 mL/min/kg
- Tmax [8]: 4 h
- Activity [9]: 1.73%
- AUC(0-inf) [10]: 885 ng·h/mL
- Activity [11]: 2.89%
- Activity [12]: 2.89%
- Activity [13]: 100%
- Kp at 1 h [14]: 0.2
- Activity [15]: Active
- Activity [16]: 3.47%
- Activity [17]: Active
- AUC(0-t) [18]: 801 ng·h/mL
- Cmax [19]: 281 ng/mL
- Activity [20]: 6.36%
- Activity [21]: Active
- clearance [22]: 9.53 mL/min/kg
- Activity [23]: 2.89%
- MRT inf [24]: 3.47 h
- concentration at 2 h [25]: 60.4 ng/mL
- Activity [26]: 5.2%
- Activity [27]: 2.89%
- Tmax [28]: 1.8 min
- half-life [29]: 212 min
- Vd [30]: 2.9 L/kg
- MRT inf [31]: 8.16 h
- Activity [32]: 1.73%
- Activity [33]: 3.47%
- Activity [34]: 1.73%
- Activity [35]: 3.47%
- Activity [36]: 75%
